Test results: US9956293B2, “Targeted therapeutics” (Madrigal Pharmaceuticals, Inc., priority 2014, dated 2018)

Tested on: HER2
Assay: HER2 degradation assay with BT-474 cell line (Example 12, FACS)
Type: cell-based
Settings: Homo sapiens
Excerpt: HER2 Degradation Assay with BT-474 Cell Line
HER2 has emerged as a key target for anticancer drugs due to its intrinsic involvement in the phosphatidylinositol-3-kinase-Akt/protein kinase B (PI3K-Akt) and the mitogen-activated protein kinase (MAPK) pathways, both of which suppress apoptosis and promote tumor cell survival, gene transcription, angiogenesis, cellular proliferation, migration, mitosis, and differentiation. The degradation of HER2 is a measure of efficacy of anticancer therapeutics that target Hsp90. Accordingly, the SDC-TRAP molecules of the invention that comprise a binding moiety that binds Hsp90 were tested in the following HER2 degradation assay.
BT-474 cells (human breast cancer cell line ATCC HTB-20) were obtained from ATCC and seeded into 12-well tissue culture plates at 0.2×10^6/1.8 mL/well. […] Each test compound was titrated in 4-fold dilutions from 5 μM to 78 nM with DMSO and 200 μL of the titration was added to each well of the cell plate. The DMSO final concentration was 0.2%. Cells were incubated overnight at 37° C. in 5% CO2.
Media was decanted from the plate, cells were washed 1× in PBS. 400 μL trypsin (EDTA) per well was added, and the cells were incubated for 2 to 3 minutes. Cells were collected into FACS tubes containing 1 ml culture medium to neutralize the trypsin and were centrifuged for 5 minutes at 1200 rpm. Supernatant was decanted and the cells were resuspended in 5 μL FITC (anti HER2/nu)/200 μL staining buffer (1×PBS+1% FBS+0.05% Sodium Azide)/tube. Controls were […] IgG isotype control and staining buffer only. Tubes were incubated for 30 minutes in the dark at room temperature. 1 mL staining buffer was added to each tube and the tubes were centrifuged for 6 minutes at 1200 rpm. The supernatant was decanted and 300 μL staining buffer was added to each tube, which was store at 4° C. for FACS (cytometer) analysis. The cytometer readout was normalized and the potency of each compound is evaluated with IC50 calculated with XLfit™ software.

[1] = BT-474, SDC-TRAPs of the 41st table

IC50 (BT-474 cells) [nM] | Compound | also measured
2350 | CC(C)c1cc(-c2nnc(O)n2-c2ccc3c(ccn3CCC3CCN(C(=O)ONC(=O)CCCCCCC(=O)Nc4ccccc4)CC3)c2)c(O)cc1O [SDC-TRAP-0118, N1-((4-(2-(5-(3-(2,4-dihydroxy-5-isopropylphenyl)-5-hydroxy-4H-1,2,4-triazol-4-yl)-1H-indol-1-yl)ethyl)piperidine-1-carbonyl)oxy)-N8-phenyloctanediamide] | 
1690 | CCNC(=O)c1nnc(-c2cc(C(C)C)c(O)cc2O)n1-c1ccc(CN2CCC(C(=O)Nc3cccc4c3CN(C3CCC(=O)NC3=O)C4=O)CC2)cc1 (stereo not shown) [SDC-TRAP-0149, 1-(4-(3-(2,4-dihydroxy-5-isopropylphenyl)-5-(ethylcarbamoyl)-4H-1,2,4-triazol-4-yl)benzyl)-N-(2-(2,6-dioxopiperidin-3-yl)-1-oxoisoindolin-4-yl)piperidine-4-carboxamide] | 
8640 | CC(C)c1cc(-c2nnc(O)n2-c2ccc(N3CCN(CCCC(=O)Nc4cccc5c4CN(C4CCC(=O)NC4=O)C5=O)CC3)cc2)c(O)cc1O (stereo not shown) [SDC-TRAP-0126, 4-(4-(4-(3-(2,4-dihydroxy-5-isopropylphenyl)-5-hydroxy-4H-1,2,4-triazol-4-yl)phenyl)piperazin-1-yl)-N-(2-(2,6-dioxopiperidin-3-yl)-1-oxoisoindolin-4-yl) butanamide] | 
> 5000 | CCNC(=O)c1nnc(-c2cc(C(C)C)c(O)cc2O)n1-c1ccc(C(=O)N2CCC[C@H]2C(=O)Nc2cccc3c2CN(C2CCC(=O)NC2=O)C3=O)cc1 (stereo partly drawn) [SDC-TRAP-0190, 5-(2,4-dihydroxy-5-isopropylphenyl)-4-(4-((2S)-2-((2-(2,6-dioxopiperidin-3-yl)-1-oxoisoindolin-4-yl)carbamoyl)pyrrolidine-1-carbonyl)phenyl)-N-ethyl-4H-1,2,4-triazole-3-carboxamide] | 
6910 | CC(C)c1cc(-c2nnc(O)n2-c2ccc(CN3CCN(CC(=O)Nc4cccc5c4CN(C4CCC(=O)NC4=O)C5=O)CC3)cc2)c(O)cc1O (stereo not shown) [SDC-TRAP-0128, 2-(4-(4-(3-(2,4-dihydroxy-5-isopropylphenyl)-5-hydroxy-4H-1,2,4-triazol-4-yl)benzyl)piperazin-1-yl)-N-(2-(2,6-dioxopiperidin-3-yl)-1-oxoisoindolin-4-yl)acetamide] | 
 | CC(C)c1cc(-c2nnc(O)n2-c2ccc(CN3CCN(C(=O)c4ccc(CCc5c[nH]c6nc(N)[nH]c(=O)c56)cc4)CC3)cc2)c(O)cc1O [SDC-TRAP-0068, 2-amino-5-(4-(4-(4-(3-(2,4-dihydroxy-5-isopropylphenyl)-5-hydroxy-4H-1,2,4-triazol-4-yl)benzyl)piperazine-1-carbonyl)phenethyl)-3H-pyrrolo[2,3-d]pyrimidin-4(7H)-one] | IC50 [1]: 262 nM
> 10000 | CC(C)c1cc(-c2nnc(O)n2-c2ccc(CN3CCN(C(=O)Nc4cccc5c4CN(C4CCC(=O)NC4=O)C5=O)CC3)cc2)c(O)cc1O (stereo not shown) [SDC-TRAP-0109, 4-(4-(3-(2,4-di hydroxy-5-isopropylphenyl)-5-hydroxy-4H-1,2,4-triazol-4-yl)benzyl)-N-(2-(2,6-dioxopiperidin-3-yl)-1-oxoisoindolin-4-yl)piperazine-1-carboxamide] | 
 | COc1ccc(-c2cnoc2-c2cc(OC)c(OC)c(OC)c2)cc1OC(=O)N1CCN(c2ccc(-n3c(O)nnc3-c3cc(C(C)C)c(O)cc3O)cc2)CC1 [SDC-TRAP-0099, 2-methoxy-5-(5-(3,4,5-trimethoxyphenyl)isoxazol-4-yl)phenyl-4-(4-(3-(2,4-dihydroxy-5-isopropylphenyl)-5-hydroxy-4H-1,2,4-triazol-4-yl)phenyl)piperazine-1-carboxylate] | IC50 (BT-474, SDC-TRAPs of the 52nd table): 677 nM
> 10000 | CC(C)c1cc(-c2nnc(O)n2-c2ccc3c(ccn3CCC3CCN(C(=O)Nc4cccc5c4CN(C4CCC(=O)NC4=O)C5=O)CC3)c2)c(O)cc1O (stereo not shown) [SDC-TRAP-0119, 4-(2-(5-(3-(2,4-dihydroxy-5-isopropylphenyl)-5-hydroxy-4H-1,2,4-triazol-4-yl)-1H-indol-1-yl)ethyl)-N-(2-(2,6-dioxopiperidin-3-yl)-1-oxoisoindolin-4-yl)piperidine-1-carboxamide] | 
> 5000 | CC(C)c1cc(-c2nnc(O)n2-c2ccc3c(ccn3CCOCCNC(=O)CCn3cc(F)c(=O)[nH]c3=O)c2)c(O)cc1O [SDC-TRAP-0048, N-(2-(2-(5-(3-(2,4-dihydroxy-5-isopropylphenyl)-5-hydroxy-4H-1,2,4-triazol-4-yl)-1H-indol-1-yl)ethoxy)ethyl)-3-(5-fluoro-2,4-dioxo-3,4-dihydropyrimidin-1(2H)-yl)propanamide] | 
1190 | CC(C)c1cc(-c2nnc(O)n2-c2ccc3c(c2)cc(CN2CCC(COC(=O)Nc4cccc5c4CN(C4CCC(=O)NC4=O)C5=O)CC2)n3C)c(O)cc1O (stereo not shown) [SDC-TRAP-0155, (1-((5-(3-(2,4-dihydroxy-5-isopropylphenyl)-5-hydroxy-4H-1,2,4-triazol-4-yl)-1-methyl-1H-indol-2-yl)methyl)piperidin-4-yl)methyl (2-(2,6-dioxopiperidin-3-yl)-1-oxoisoindolin-4-yl)carbamate] | 
657 | CCNC(=O)c1nnc(-c2cc(C(C)C)c(O)cc2O)n1-c1ccc(CN2CCC(C(=O)N3CCC(OC(=O)Nc4cccc5c4CN(C4CCC(=O)NC4=O)C5=O)CC3)CC2)cc1 (stereo not shown) [SDC-TRAP-0123, 1-(1-(4-(3-(2,4-Dihydroxy-5-isopropylphenyl)-5-(ethylcarbamoyl)-4H-1,2,4-triazol-4-yl)benzyl)piperidine-4-carbonyl)piperidin-4-yl (2-(2,6-dioxopiperidin-3-yl)-1-oxoisoindolin-4-yl)carbamate] | 
8090 | CC(C)c1cc(-c2nnc(O)n2-c2ccc(CC(=O)N(C)CCOC(=O)Nc3cccc4c3CN(C3CCC(=O)NC3=O)C4=O)cc2)c(O)cc1O (stereo not shown) [SDC-TRAP-0127, 2-(2-(4-(3-(2,4-di hydroxy-5-isopropylphenyl)-5-hydroxy-4H-1,2,4-triazol-4-yl)phenyl)-N-methylacetamido)ethyl(2-(2,6-dioxopiperidin-3-yl)-1-oxoisoindolin-4-yl)carbamate] | 
> 5000 | CCNC(=O)c1nnc(-c2cc(C(C)C)c(O)cc2O)n1-c1ccc(C(=O)N2CCC(CCOC(=O)Nc3cccc4c3CN(C3CCC(=O)NC3=O)C4=O)CC2)cc1 (stereo not shown) [SDC-TRAP-0140, 2-(1-(4-(3-(2,4-dihydroxy-5-isopropylphenyl)-5-(ethylcarbamoyl)-4H-1,2,4-triazol-4-yl)benzoyl)piperidin-4-yl)ethyl(2-(2,6-dioxopiperidin-3-yl)-1-oxoisoindolin-4-yl)carbamate] | 
 | CC(C)c1cc(-c2nnc(O)n2-c2ccc(CN3CCN(C(=O)c4ccc(CCc5c[nH]c6nc(N)[nH]c(=O)c56)cc4)CC3)c(F)c2)c(O)cc1O [SDC-TRAP-0078, 2-amino-5-(4-(4-(4-(3-(2,4-dihydroxy-5-isopropylphenyl)-5-hydroxy-4H-1,2,4-triazol-4-yl)-2-fluorobenzyl)piperazine-1-carbonyl)phenethyl)-3H-pyrrolo[2,3-d]pyrimidin-4(7H)-one] | IC50 [1]: 1000 nM
693 | CC(C)c1cc(-c2nnc(O)n2-c2ccc(CN3CCN(C(=O)c4ccc(COC(=O)Nc5cccc6c5CN(C5CCC(=O)NC5=O)C6=O)cc4F)CC3)c(F)c2)c(O)cc1O (stereo not shown) [SDC-TRAP-0174, 4-(4-(4-(3-(2,4-dihydroxy-5-isopropylphenyl)-5-hydroxy-4H-1,2,4-triazol-4-yl)-2-fluorobenzyl)piperazine-1-carbonyl)-3-fluorobenzyl (2-(2,6-dioxopiperidin-3-yl)-1-oxoisoindolin-4-yl)carbamate] | 
